Key:
human cathepsin K = human cathepsin K (UniProt P43236, Y175D/V274L, species not given); experiment: Cathepsin K Assay; format: biochemical; settings: IP from dose response curve; Z-Leu-Arg-AMC substrate, pH 5.5; read-out: hrbCat K (IP (nM))
human cathepsin F = target: T1, human cathepsin F (Homo sapiens, UniProt Q9UBX1); experiment: Cathepsin F Assay; format: biochemical; settings: IP from dose response curve; Z-Phe-Arg-AMC substrate, pH 5.5; read-out: hCat F (IP (nM))
T1 sequence (Q9UBX1 271-484): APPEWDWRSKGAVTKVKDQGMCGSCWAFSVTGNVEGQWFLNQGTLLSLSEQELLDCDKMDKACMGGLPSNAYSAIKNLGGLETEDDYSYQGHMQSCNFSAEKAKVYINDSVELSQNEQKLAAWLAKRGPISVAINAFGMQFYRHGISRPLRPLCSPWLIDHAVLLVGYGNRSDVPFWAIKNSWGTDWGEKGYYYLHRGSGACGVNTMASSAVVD
Summary of the method: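 Human cathepsin F (10 nM) preincubated 15 min at room temperature with compounds in 50 mM MES pH 5.5, 2.5 mM EDTA, 2.5 mM DTT, 10% DMSO. Z-Phe-Arg-AMC (8 μM) added; AMC release read by fluorescence (Ex 360/Em 460 nm) over 20 min, inhibition fit to dose-response model.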

| SMILES | IC50 (human cathepsin K) [nM] | IC50 (human cathepsin F) [nM] |
| --- | --- | --- |
| N#CC1(NC(=O)[C@@H]2CCCC[C@H]2c2nn(-c3cnc(O)nc3)cc2-c2ccc(N3CCS(=O)(=O)CC3)cc2)CC1 [Example 170, (1R,2R)-N-(1-cyanocyclopropyl)-2-(4-(4-(1,1-dioxidothiomorpholino)phen-yl)-1-(2-hydroxypyrimidin-5-yl)-1H-pyrazol-3-yl)cyclohexanecarboxamide] | 1.88 | 2530 |
| Cn1cc(-n2cc(-c3ccc(N4CCS(=O)(=O)CC4)cc3)c([C@@H]3CCCC[C@H]3C(=O)NC3(C#N)CC3)n2)cn1 [Example 171, (1R,2R)-N-(1-cyanocyclopropyl)-2-(4-(4-(1,1-dioxidothiomorpholino)phen-yl)-1′-methyl-1′H-[1,4′-bipyrazol]-3-yl)cyclohexanecarboxamide] | 3.38 | 2760 |

Reference: US9656990B2, “Cathepsin cysteine protease inhibitors” (Merck Sharp & Dohme Corp., priority 2014, dated 2017)
